We go through one compound from US9694018B1, “IBAT inhibitors for the treatment of liver disease” (Albireo AB, priority 2010, dated 2017).

This assay relates to Mdr2−/− mice. The experiment in a line: In vivo animal model of primary sclerosing cholangitis (Mdr2-/- mice). As to conditions: daily oral gavage for 2-4 weeks, vs vehicle. The source says:
A genetic mice with targeted disruption of the Multidrug resistant Mdr2 (Abcb4) gene encoding a canalicular phospholipid flippase (Mdr2−/− mice) spontaneously develop sclerosing cholangitis with macroscopic and microscopic features of human Primary sclerosing cholangitis. Bile duct injury in these mice is linked to defective biliary phospholipid secretion resulting in an increased concentration of free non-micellar bile acids which subsequently cause bile duct epithelial cell (cholangiocyte) injury, pericholangitis, periductal fibrosis with ductular proliferation and finally sclerosing cholangitis. […] In analogy to the Mdr2−/− mouse model of sclerosing cholangitis, Multidrug resistant protein MDR3/ABCB4 (the human orthologue of rodent Mdr2/Abcb4) defects play a role in the pathogenesis of various cholangiopathies in humans. MDR3 variants play a role as a modifier gene in the pathogenesis of various cholangiopathies such as PSC, Primary Biliary cirrhosis (PBC) and adulthood idiopathic ductopenia/billary fibrosis.
Mdr2−/− mice were given daily oral doses of the compound of Example 14 by gavage for 2-4 weeks and controls were dosed the vehicle in the same way. Serum liver tests, liver histology and fibrosis were investigated. The compound of Example 14 improves liver tests, liver histology and fibrosis.

For `CCCCC1(CCCC)CN(c2ccccc2)c2cc(SC)c(OCC(=O)N[C@@H](C(=O)NCC(=O)O)c3ccccc3)cc2S(=O)(=O)C1` [Example 14, 1,1-Dioxo-3,3-dibutyl-5-phenyl-7-methylthio-8-(N—{(R)-1′-phenyl-1′-[N′-(carboxymethyl)carbamoyl]methyl}carbamoylmethoxy)-2,3,4,5-tetrahydro-1,5-benzothiazepine], the Serum liver tests result is on record as “improves”.
